Bounds are passed on as bounds.

For seven compounds, IC50, Activity and EC50 results are on record in ChEMBL document CHEMBL1138174, “Novel HIV-1 integrase inhibitors derived from quinolone antibiotics” (J Med Chem, 2006).

The target in assay [1] is Human immunodeficiency virus type 1 integrase (Human immunodeficiency virus 1, UniProt Q7ZJM1). As to the kind of experiment: Inhibition of recombinant HIV1 integrase strand transfer activity.
Assay [2] relates to MT4. As to the kind of experiment: Cytotoxic activity against human MT4 cells infected with HIV1 by MTT assay. In kind it is functional. (In general: Tetrazolium dyes change colour on reduction, which living cells bring about.)
Assay [3] relates to MT4. As to the kind of experiment: Antiviral activity against HIV1 3b in human MT4 cells. The format is functional, cell-based.

Sequence of Human immunodeficiency virus type 1 integrase (Q7ZJM1 whole entry): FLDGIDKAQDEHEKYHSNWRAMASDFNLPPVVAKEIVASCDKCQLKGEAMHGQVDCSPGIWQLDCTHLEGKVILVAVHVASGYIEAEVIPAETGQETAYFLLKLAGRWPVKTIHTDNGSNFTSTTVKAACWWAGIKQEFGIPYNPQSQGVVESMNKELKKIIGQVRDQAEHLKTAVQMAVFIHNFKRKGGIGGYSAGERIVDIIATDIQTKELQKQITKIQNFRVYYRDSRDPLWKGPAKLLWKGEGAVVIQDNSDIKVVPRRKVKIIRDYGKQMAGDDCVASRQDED

Consider `COc1cc2c(cc1Cc1cccc(Cl)c1F)c(=O)c(C(=O)O)cn2CCO`, for which, in assay [1], the IC50 amounted to 9.1 nM. Besides, the Activity in assay [2] amounted to 5.3 µM. In assay [3], this compound displayed an EC50 of 17.1 nM.
In turn, `COc1cc2c(cc1Cc1cccc(Cl)c1F)c(=O)c(C(=O)O)cn2[C@H](CO)C(C)C` registered an Activity in assay [2] of 4 µM. In assay [3], this compound registered an EC50 of 0.9 nM.
In assay [2], `CC(C)[C@@H](CO)n1cc(C(=O)O)c(=O)c2cc(Cc3cccc(Cl)c3F)ccc21` gave an Activity of 14 µM. The compound also yielded an EC50 in assay [3] of 7.5 nM.
For the compound `O=C(O)c1c[nH]c2ccc(Cc3cccc(Cl)c3F)cc2c1=O`, the IC50 in assay [1] turned out to be 43.5 nM. Moreover, the Activity in assay [2] is greater than 12 µM. The same compound registered an EC50 in assay [3] of 805 nM.
On the same counts, the results for `O=C(O)c1cn(CCO)c2ccc(Cc3cccc(Cl)c3F)cc2c1=O` are 24.2 nM, greater than 15 µM and 76.3 nM.
As for `O=C(O)c1cnc2ccc(Cc3ccccc3)cc2c1O`, the IC50 in assay [1] was found to be 1600 nM. The compound also had an Activity in assay [2] greater than 30 µM. In addition, the EC50 in assay [3] was greater than 30000 nM.
Take `O=C(NCc1ccc(F)cc1)c1nc(N2CCCCS2(=O)=O)c2cccnc2c1O`: in assay [1], the IC50 turned out to be 22.8 nM. The compound further showed an Activity in assay [2] of 0.7 µM. Also, it took 3.6 nM to reach a half-maximal effect in assay [3] (EC50).

What is called IC50 is the concentration that gives 50% inhibition. The EC50 is the concentration giving half of the maximal effect. Higher therefore signals a need for much substance.
